According to US20040260318A1, “Anastomotic connector devices” (Angiotech International AG, priority 2003, published 2004):

How the values were obtained:
[1] = system: AP-1 transcriptional activity; test: IL-1 stimulated AP-1 driven CAT reporter gene activity in chondrocytes; format: cell-based; conditions: transfected chondrocytes, concentration dependent, 10^−7 to 10^−5 M
Excerpt: The results shown are representative of three independent experiments.

collagenase (MMP-1) mRNA = test: IL-1 induced MMP-1 (collagenase) mRNA expression in chondrocytes, Northern blot
[2] = system: Chick Chorioallantoic Membrane; test: Chick chorioallantoic membrane (CAM) angiogenesis assay; conditions: for Inhibition/n: 48 hours
[3] = system: Primary human smooth muscle cells; test: Screening assay for smooth muscle cell migration (Boyden chamber, rhPDGF-BB chemotaxis); format: cell-based; conditions: 4 hours migration toward rhPDGF-BB 10 ng/mL, FIG. 8
Description: Primary human smooth muscle cells are starved of serum in smooth muscle cell basal media containing insulin and human basic fibroblast growth factor (bFGF) for 16 hours prior to the assay. […] A 100 μL volume of smooth muscle cells (approximately 20,000-25,000 cells) is added to the top of a Boyden chamber assembly (Chemicon QCM Chemotaxis 96-well migration plate). To the bottom wells, the chemotactic agent, recombinant human platelet derived growth factor (rhPDGF-BB) is added at a concentration of 10 ng/mL in a total volume of 150 μL. Paclitaxel is prepared in DMSO at a concentration of 10^−2 M and serially diluted 10-fold to give a range of stock concentrations (10^−8 M to 10^−2 M). Paclitaxel is added to cells by directly adding paclitaxel DMSO stock solutions, prepared earlier, at a 1/1000 dilution, to the cells in the top chamber. […]
At the end of the 4 hour period, cells in the top chamber are discarded and the smooth muscle cells attached to the underside of the filter are detached for 30 minutes at 37° C. in Cell Detachment Solution (Chemicon). […] Relative fluorescence units from triplicate wells are averaged after subtracting background fluorescence (control chamber without chemoattractant) and average number of cells migrating is obtained from a standard curve of smooth muscle cells serially diluted from 25,000 cells/well down to 98 cells/well.

[4] = system: AP-1 DNA binding activity; test: IL-1 induced AP-1 DNA binding activity, gel mobility shift assay; format: cell-based; conditions: chondrocyte lysates, pretreated at 10^−7 to 10^−5 M for 24 hours
Description: Binding activity was assayed with a radiolabeled human AP-1 sequence probe and gel mobility shift assay. Extracts from chondrocytes untreated or treated with various amounts of paclitaxel (10^−7 to 10^−5 M) followed by IL-1β (20 ng/ml) were incubated with excess probe on ice for 30 minutes, followed by non-denaturing gel electrophoresis. The “com” lane contains excess unlabeled AP-1 oligonucleotide.

Solubility in water = format: physicochemical
stromelysin (MMP-3) mRNA = test: IL-1 induced MMP-3 (stromelysin) mRNA expression in chondrocytes, Northern blot
[5] = chondrocytes pretreated for 24 hours, IL-1 induced

## CC(=O)O[C@H]1C(=O)[C@@]2(C)[C@H]([C@H](OC(=O)c3ccccc3)[C@]3(O)C[C@H](OC(=O)[C@H](O)[C@@H](NC(=O)c4ccccc4)c4ccccc4)C(C)=C1C3(C)C)[C@]1(OC(C)=O)CO[C@@H]1C[C@@H]2O [paclitaxel, 5β,20-Epoxy-1,2Alpha,4,7β,10β,13Alpha-hexahydroxytax-11-en-9-one-4,10-diacetate-2-benzoate-13-(Alpha-phenylhippurate)]
[1]
  IL-1 induced AP-1 reporter gene CAT activity: reduced
Collagenase (MMP-1) mRNA
  concentration inhibiting collagenase expression in vitro: 10^−6 M
Collagenase (MMP-1) mRNA; at 10^−5 M
  inhibition of collagenase mRNA expression: complete inhibition
Collagenase (MMP-1) mRNA; [5]
  levels of collagenase mRNA: significantly reduced
[2]; 0.25 ug in methylcellulose (10 ul) disk, CAMs with positive antiangiogenesis response / n
  Inhibition/n: 2/11
[2]; 0.5 ug in methylcellulose (10 ul) disk
  Inhibition/n: 6/11
[2]; 1 ug in methylcellulose (10 ul) disk
  Inhibition/n: 6/15
[2]; 5 ug in methylcellulose (10 ul) disk
  Inhibition/n: 20/27
[2]; 10 ug in methylcellulose (10 ul) disk
  Inhibition/n: 16/21
[2]; 30 ug in methylcellulose (10 ul) disk
  Inhibition/n: 31/31
[2]; 48 hours after application
  angiogenesis in the CAM: inhibited
[2]; within 48 hours, depending on concentration
  avascular gradient scale, maximal avascular zone: 3
[3]
  IC50: 0.76 nM
[4]
  IL-1 induced AP-1 binding activity to DNA: decreased
Solubility in water
  solubility in water: insoluble in water
Stromelysin (MMP-3) mRNA
  concentration inhibiting stromelysin expression in vitro: 10^−6 M
Stromelysin (MMP-3) mRNA; at 10^−5 M
  inhibition of stromelysin mRNA expression: complete inhibition
Stromelysin (MMP-3) mRNA; [5]
  levels of stromelysin mRNA: significantly reduced
